Legend:
[1] = test system: pulmonary hypertension induced by injection of monocrotaline in rats; assay: Survival of rats with monocrotaline-induced pulmonary hypertension; format: in vivo, Male Sprague-Dawley rats
Method: Male Sprague-Dawley rats weighing about 300 g received a subcutaneous injection of monocrotaline (MCT) at a dose of 80 mg/kg.
The treatment with irbesartan was started either 21 days or 14 days after injection of monocrotaline. Irbesartan was incorporated into the food in powder form. The control animals received food alone.
Throughout the study, the animals were examined daily.
In a first study, irbesartan was administered alone at a dose of 50 mg/kg. In a second study, irbesartan was administered alone at a dose of 30 mg/kg and in combination with hydrochlorothiazide (HCTZ): irbesartan: 30 mg/kg and HCTZ: 10 mg/kg.

[2] = test system: pulmonary hypertension induced with monocrotaline; conditions: reported by L. Cassis et al. and R. Kreutz et al.; cited from earlier work
[3] = Study 2, treatment started on the 14th day post-MCT, irbesartan 30 mg/kg, HCTZ 10 mg/kg, alone or in combination
[4] = Study 1, irbesartan 50 mg/kg in food, treatment started on the 14th day after MCT 80 mg/kg s.c.
[5] = Study 1, irbesartan 50 mg/kg in food, treatment started on the 21st day after MCT 80 mg/kg s.c.

Compound	Survival to the 50th day [1, 3] [%]	Survival to the end of the study (85th day) [1, 3] [%]	Survival time of the MCT-treated rats ([1]; 50 mg/kg/day, either from the 21st day or from the 14th day post-MCT)	Survival to the 25th day [1, 4]	Survival to the 50th day [1, 4]	Survival to the end of the study (100th day) [1, 4]	Survival to the end of the study (100th day) ([1]; Study 1, irbesartan 50 mg/kg in food, treatment started on the 14th day after MCT 80 mg/kg s.c., listed as irbesartan) [%]	Survival to the 25th day [1, 5]	Survival to the 50th day [1, 5]	Survival to the end of the study (57th day) [1, 5]	Survival to the end of the study (57th day) ([1]; Study 1, irbesartan 50 mg/kg in food, treatment started on the 21st day after MCT 80 mg/kg s.c., listed as irbesartan) [%]	Overall survival time estimated ([1]; Study 1, irbesartan 50 mg/kg, treatment started on the 14th day post-MCT, control group 46 days) [days]	Median estimated survival time ([1]; Study 2, treatment started on the 14th day post-MCT, irbesartan 30 mg/kg alone or with HCTZ 10 mg/kg) [days]	Effect in the monocrotaline pulmonary hypertension model [2]
NS(=O)(=O)c1cc2c(cc1Cl)NCNS2(=O)=O [HCTZ, hydrochlorothiazide]	25	4.2												
CCCCC1=NC2(CCCC2)C(=O)N1Cc1ccc(-c2ccccc2-c2nnn[nH]2)cc1 [Irbesartan]	47.8	0	significantly increased the survival time	100% (12/12)	83% (10/12)	50% (6/12)	50	100% (18/18)	72% (13/18)	61% (11/18)	61	> 93	46	
CCCCc1nc(Cl)c(CO)n1Cc1ccc(-c2ccccc2-c2nn[nH]n2)cc1 [losartan]														no effect

Source: US8088827B2, “Use of irbesartan for the preparation of medicinal products that are useful for treating pulmonary hypertension” (Sanofi-Aventis, priority 2001, dated 2012)
